Measured values reported in patent publication US12077503B2, “Substituted cyclic amides and their use as herbicides” (FMC CORPORATION, priority 2015, dated 2024).

Columns and labels:
Format in all cases: in vivo
corn (Zea mays) [1] = assay: Test G Post-Emergence Protocol; settings: Zea mays, post-emergence, 312 h
Method in brief: (§1)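 Damage was rated 13 days after treatment from 0 (none) to 100 (plant killed). Compound was applied as a spray at 15.625, 62.5 or 250 g/ha in 50:50 acetone/water containing 0.5% Tween 20, onto 8-day-old potted plants kept in a glasshouse (24/16 °C, 14 h light, 65% humidity).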

[2] = system: velvetleaf (Abutilon theophrasti); assay: Test G Post-Emergence Protocol; settings: Abutilon theophrasti, post-emergence, 312 h
Method in brief: as §1

[3] = system: giant foxtail (Setaria faberi); assay: Test G Post-Emergence Protocol; settings: Setaria faberi, post-emergence, 312 h
Method in brief: as §1

[4] = system: ivy-leaved morning glory (Ipomoea hederacea); assay: Test G Post-Emergence Protocol; settings: Ipomoea, post-emergence, 312 h
Method in brief: as §1

[5] = system: redroot pigweed (Amaranthus retroflexus); assay: Test G Post-Emergence Protocol; settings: Amaranthus retroflexus, post-emergence, 312 h
Method in brief: as §1

[6] = system: barnyardgrass (Echinochloa crus-galli); assay: Test G Post-Emergence Protocol; settings: Echinochloa crus-galli, post-emergence, 312 h
Method in brief: as §1

corn (Zea mays) [7] = assay: Test G Pre-Emergence Protocol; settings: Zea mays, pre-emergence, 312 h, evaluated after 13 days
Method in brief: (§2)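 Scores are visual damage ratings from 0 (no damage) to 100 (total plant kill), taken 13 days after treatment. Compound was sprayed one day post-sowing at 15.625, 62.5 or 250 g/ha in 50:50 acetone/water with 0.5% Tween 20.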

[8] = system: velvetleaf (Abutilon theophrasti); assay: Test G Pre-Emergence Protocol; settings: Abutilon theophrasti, pre-emergence, 312 h, evaluated after 13 days
Method in brief: as §2

[9] = system: giant foxtail (Setaria faberi); assay: Test G Pre-Emergence Protocol; settings: Setaria faberi, pre-emergence, 312 h, evaluated after 13 days
Method in brief: as §2

[10] = system: ivy-leaved morning glory (Ipomoea hederacea); assay: Test G Pre-Emergence Protocol; settings: Ipomoea, pre-emergence, 312 h, evaluated after 13 days
Method in brief: as §2

[11] = system: redroot pigweed (Amaranthus retroflexus); assay: Test G Pre-Emergence Protocol; settings: Amaranthus retroflexus, pre-emergence, 312 h, evaluated after 13 days
Method in brief: as §2

[12] = system: barnyardgrass (Echinochloa crus-galli); assay: Test G Pre-Emergence Protocol; settings: Echinochloa crus-galli, pre-emergence, 312 h, evaluated after 13 days
Method in brief: as §2

CN1C[C@H](c2ccc(C(F)(F)F)cc2)[C@@H](C(=O)Nc2ccc(F)cc2S(C)(=O)=O)C1=O (racemic) [Compound 1483]
plant injury at 15.625 g/ha (corn (Zea mays) [1]; 15.625 g ai/ha, evaluated after 13 days (100=total damage to plant; 0=no damage to plant), read-out: Corn damage rating): 20%
plant injury at 62.5 g/ha (corn (Zea mays) [1]; 62.5 g ai/ha, evaluated after 13 days, read-out: Corn damage rating (100=total damage to plant; 0=no damage to plant)): 30%
plant injury at 250 g/ha (corn (Zea mays) [1]; 250 g ai/ha, evaluated after 13 days, read-out: damage to plant, Corn (100=total damage to plant; 0=no damage to plant)): 50%
pest or weed control at 15.625 g/ha ([2]; 15.625 g ai/ha, evaluated after 13 days (100=total damage to plant; 0=no damage to plant), read-out: Velvetleaf damage rating): 10%
pest or weed control at 62.5 g/ha ([2]; 62.5 g ai/ha, evaluated after 13 days, read-out: Velvetleaf damage rating (100=total damage to plant; 0=no damage to plant)): 10%
pest or weed control at 250 g/ha ([2]; 250 g ai/ha, evaluated after 13 days, read-out: damage to plant, Velvetleaf (100=total damage to plant; 0=no damage to plant)): 30%
pest or weed control at 15.625 g/ha ([3]; 15.625 g ai/ha, evaluated after 13 days (100=total damage to plant; 0=no damage to plant), read-out: Foxtail, Giant damage rating): 30%
pest or weed control at 62.5 g/ha ([3]; 62.5 g ai/ha, evaluated after 13 days, read-out: Foxtail, Giant damage rating (100=total damage to plant; 0=no damage to plant)): 60%
pest or weed control at 250 g/ha ([3]; 250 g ai/ha, evaluated after 13 days, read-out: damage to plant, Foxtail, Giant (100=total damage to plant; 0=no damage to plant)): 70%
pest or weed control at 15.625 g/ha ([4]; 15.625 g ai/ha, evaluated after 13 days (100=total damage to plant; 0=no damage to plant), read-out: Morningglory, Ivy-leaved damage rating): 0%
pest or weed control at 62.5 g/ha ([4]; 62.5 g ai/ha, evaluated after 13 days, read-out: Morningglory, Ivy-leaved damage rating (100=total damage to plant; 0=no damage to plant)): 0%
pest or weed control at 250 g/ha ([4]; 250 g ai/ha, evaluated after 13 days, read-out: damage to plant, Morningglory, Ivy-leaved (100=total damage to plant; 0=no damage to plant)): 0%
pest or weed control at 15.625 g/ha ([5]; 15.625 g ai/ha, evaluated after 13 days (100=total damage to plant; 0=no damage to plant), read-out: Pigweed, Redroot damage rating): 40%
pest or weed control at 62.5 g/ha ([5]; 62.5 g ai/ha, evaluated after 13 days, read-out: Pigweed, Redroot damage rating (100=total damage to plant; 0=no damage to plant)): 30%
pest or weed control at 250 g/ha ([5]; 250 g ai/ha, evaluated after 13 days, read-out: damage to plant, Pigweed, Redroot (100=total damage to plant; 0=no damage to plant)): 60%
pest or weed control at 15.625 g/ha ([6]; 15.625 g ai/ha, evaluated after 13 days (100=total damage to plant; 0=no damage to plant), read-out: Barnyardgrass damage rating): 30%
pest or weed control at 62.5 g/ha ([6]; 62.5 g ai/ha, evaluated after 13 days, read-out: Barnyardgrass damage rating (100=total damage to plant; 0=no damage to plant)): 40%
pest or weed control at 250 g/ha ([6]; 250 g ai/ha, evaluated after 13 days, read-out: damage to plant, Barnyardgrass (100=total damage to plant; 0=no damage to plant)): 70%
plant injury at 15.625 g/ha (corn (Zea mays) [7]; 15.625 g ai/ha, read-out: Corn damage rating (100=total damage to plant; 0=no damage to plant)): 30%
plant injury at 62.5 g/ha (corn (Zea mays) [7]; 62.5 g ai/ha, 100=total damage to plant, 0=no damage to plant, read-out: plant damage rating, Corn): 20%
plant injury at 250 g/ha (corn (Zea mays) [7]; 250 g ai/ha, read-out: Corn damage rating (100=total damage to plant; 0=no damage to plant)): 40%
pest or weed control at 15.625 g/ha ([8]; 15.625 g ai/ha, read-out: Velvetleaf damage rating (100=total damage to plant; 0=no damage to plant)): 0%
pest or weed control at 62.5 g/ha ([8]; 62.5 g ai/ha, 100=total damage to plant, 0=no damage to plant, read-out: plant damage rating, Velvetleaf): 0%
pest or weed control at 250 g/ha ([8]; 250 g ai/ha, read-out: Velvetleaf damage rating (100=total damage to plant; 0=no damage to plant)): 0%
pest or weed control at 15.625 g/ha ([9]; 15.625 g ai/ha, read-out: Foxtail, Giant damage rating (100=total damage to plant; 0=no damage to plant)): 30%
pest or weed control at 62.5 g/ha ([9]; 62.5 g ai/ha, 100=total damage to plant, 0=no damage to plant, read-out: plant damage rating, Foxtail, Giant): 60%
pest or weed control at 250 g/ha ([9]; 250 g ai/ha, read-out: Foxtail, Giant damage rating (100=total damage to plant; 0=no damage to plant)): 80%
pest or weed control at 15.625 g/ha ([10]; 15.625 g ai/ha, read-out: Morning-glory, Ivy-leaved damage rating (100=total damage to plant; 0=no damage to plant)): 0%
pest or weed control at 62.5 g/ha ([10]; 62.5 g ai/ha, 100=total damage to plant, 0=no damage to plant, read-out: plant damage rating, Morningglory, Ivy-leaved): 0%
pest or weed control at 250 g/ha ([10]; 250 g ai/ha, read-out: Morningglory, Ivy-leaved damage rating (100=total damage to plant; 0=no damage to plant)): 0%
pest or weed control at 15.625 g/ha ([11]; 15.625 g ai/ha, read-out: Pigweed, Redroot damage rating (100=total damage to plant; 0=no damage to plant)): 20%
pest or weed control at 62.5 g/ha ([11]; 62.5 g ai/ha, 100=total damage to plant, 0=no damage to plant, read-out: plant damage rating, Pigweed, Redroot): 40%
pest or weed control at 250 g/ha ([11]; 250 g ai/ha, read-out: Pigweed, Redroot damage rating (100=total damage to plant; 0=no damage to plant)): 80%
pest or weed control at 15.625 g/ha ([12]; 15.625 g ai/ha, read-out: Barnyard grass damage rating (100=total damage to plant; 0=no damage to plant)): 40%
pest or weed control at 62.5 g/ha ([12]; 62.5 g ai/ha, 100=total damage to plant, 0=no damage to plant, read-out: plant damage rating, Barnyardgrass): 40%
pest or weed control at 250 g/ha ([12]; 250 g ai/ha, read-out: Barnyardgrass damage rating (100=total damage to plant; 0=no damage to plant)): 70%
